According to US20250288576A1, “SPECIFIC TETRADENTATE COPPER CHELATORS AS ANTICANCER AGENTS” (Guangdong University of Technology, priority 2024, published 2025):
Each block holds one molecule with its values, some of them ahead of it.

Tests used:
[1] = system: HeLa cells; test: ROS production, DCF fluorescence (H2DCF-DA) flow cytometry; format: cell-based, human; conditions: 48 h incubation
Experimental: FIG. 4. ROS production induced by TDMQ20 in HeLa cells, detected by DCF fluorescence after 48 h of incubation. ***p<0.001, ****p<0.0001.
The most straightforward technique for measuring the production of […] in cells is the use of the cell permeable fluorescent probe 2′,7′-dichlorodihydrofluorescein diacetate (H2DCF-DA). In the presence of ROS, predominantly H2O2, H2DCF is rapidly oxidized to 2′,7′-dichlorofluorescein (DCF) which is highly fluorescent, with excitation and emission wavelengths of 498 and 522 nm, respectively. The stained cells were analyzed by flow cytometry and analyzed by the FlowJo v.Xsoftware.

[2] = system: metastatic melanoma A375; test: MTT cell viability assay, A375; format: cell-based; conditions: Homo sapiens, A-375, 48 h incubation, mean ± SD of at least three experiments
Experimental: (§1) The cytotoxicity of several compounds from the TDMQ series, especially TDMQ20, was evaluated on several human cancer cell lines. The clinically used anticancer drug 5-fluorouracil (5-FU) was used as comparator.
(§2) The targeted human cancer lines were 1) the metastatic melanoma A375, 2) the non-small cell lung adenocarcinoma A549, 3) the melanoma COLO-829, 4) the cervical cancer HeLa, 5) the hepatocellular carcinoma HepG2. The human immortalized keratinocyte cell line HaCaT was used as non-cancer reference cell line.
(§3) The MTT test was used to measure the cell viability. In this test, the applied colorless tetrazolium salt is reduced by mitochondrial succinate dehydrogenase, thus producing the violet formazan derivative that is quantified by UV-visible spectrometry at 570 nm.

[3] = system: non-small cell lung adenocarcinoma A549; test: MTT cell viability assay, A549; format: cell-based, human; conditions: for IC50: MTT, 48 h incubation, mean ± SD of at least three experiments
Experimental: as §1, §2, §3

[4] = system: hepatocellular carcinoma HepG2; test: MTT cell viability assay, HepG2; format: cell-based, human; conditions: 48 h incubation, mean ± SD of at least three experiments
Experimental: as §1, §2, §3

[5] = system: melanoma COLO-829; test: MTT cell viability assay, COLO-829; format: cell-based; conditions: Homo sapiens, 48 h incubation, mean ± SD of at least three experiments
Experimental: as §1, §2, §3

[6] = system: HeLa cells; test: Wound healing assay (scratch assay); format: cell-based, human; conditions: 14.5 μM, 24 h
Experimental: (A) Representative images of wounds formed by HeLa cells after treatment with TDMQ20. (B) Quantitative analysis of the wound closure upon treatment by TDMQ20. ****p<0.0001 vs. control. “Control” stands for untreated cells. Scale bar: 250 μm.
Wound healing assay (or “scratch assay”). The migratory ability of Hela cells in the presence of TDMQ20 was evaluated using the wound healing assay monitored by optical microscopy. Measurement after 24 h of the width of the “wound” created in a cell monolayer quantify the migration rate of the cells to close the wound. This method mimics cell migration during wound healing in vivo. For cancer cells, cell migration is involved in several processes such as tumor invasion, neo-angiogenesis and metastasis (X. Wang et al., BMC Pharmacol. Toxicol. 2019, 20, 4).

[7] = system: HeLa cells; test: Apoptosis, annexin V-FITC/PI flow cytometry; format: cell-based, human; conditions: 48 h incubation
Experimental: FIG. 3. Pro-apoptotic activity of TDMQ20 on HeLa cells after 48 h of incubation. (A) Quantitative analysis of necrotic cells (quadrant Q1), early apoptotic cells (quadrant Q2), advanced apoptotic cells (quadrant Q3) and non-apoptotic cells (quadrant Q4), using annexin V/propidium iodide (PI) staining and detection by flow cytometry. “Control” stands for untreated cells. (B) Histograms represent the proportion of apoptotic cells (Q2+Q3) within the flow cytometry charts; “ns” stands for p>0.05, ****p<0.0001 vs. control.
The pro-apoptotic activity of TDMQ20 in Hela cells was evaluated after 48 h of incubation with the drug, using the annexin V-FITC/PI method (FITC and PI stand for fluoresceine-5-isothiocyanate and propidium iodide, respectively). After staining, live cells show little or no fluorescence (annexin V−/PI−), early apoptosis cells show green fluorescence (annexin V+/PI−), late apoptosis cells and necrosis cells show red and green fluorescence (annexin V+/PI+). Cells were detected by flow cytometry. IDEAS software was used for acquisition of data and FlowJo v. X software was used for analysis of data. The total proportion of apoptotic cells, including early apoptosis (quadrants Q2) or late apoptosis (quadrants Q3) or necrosis (quadrants Q1), accounted for 51%, 15% and 9% when HeLa cells were treated with TDMQ20 at the concentration of […], 7.3 μM and 3.7 μM, respectively. So, TDMQ20 induced the apoptosis of HeLa cells in a dose-dependent manner.

[8] = system: cervical cancer HeLa; test: MTT cell viability assay, HeLa; format: cell-based, human; conditions: 48 h incubation, mean ± SD of at least three experiments
Experimental: as §1, §2, §3

[9] = system: HeLa cells; test: Colony-forming assay; format: cell-based, human; conditions: 14th day after treatment
Experimental: (A) Representative images of colonies formed by HeLa cells at the 14th day after treatment with increasing concentrations of TDMQ20. (B) Quantitative analysis of this clonogenicity assay. **p<0.01, ****p<0.0001 vs. control. “Control” stands for untreated cells.
Colony-forming assay. The proliferation of HeLa cells exposed to various concentrations of TDMQ20 was evaluated at the 14th day after treatment.

[10] = system: HeLa cells; test: Mitochondrial membrane potential, JC-1 staining flow cytometry; format: cell-based, human; conditions: increasing concentration of TDMQ20, 48 h
Excerpt: FIG. 5. (A) Red/green fluorescence of HeLa cells treated with various concentrations of TDMQ20, and stained by JC-1, as an indirect measure of mitochondrial membrane potential (ΔΨm). Detection by flow cytometry. (B) Histograms presenting data of panel A as mean values of three independent experiments±SD; ****p<0.0001 vs. control.
The higher is the ΔΨm, the more elevated is the red shift of the dye (more aggregates formed); vice-versa, the lower is the ΔΨm of the mitochondria and the lower is the red to green ratio of the fluorescent marker (few aggregates formed). Therefore, the ratio of red/green fluorescence intensities is significant of mitochondrial integrity and function, and mitochondrial depolarization is indicated by a reduction in the red to green fluorescence intensity ratio.
This method was used to evaluate the mitochondrial membrane potential in HeLa cells incubated with various concentrations of TDMQ20 for 48 h, using staining with JC-1, and quantification by flow cytometry treated with the FlowJo v. X software.

[11] = system: immortalized keratinocyte cell line HaCaT; test: MTT cell viability assay, HaCaT (non-cancer reference); format: cell-based, human; conditions: 48 h incubation, non-cancer cells, mean ± SD of at least three experiments
Experimental: as §1, §2, §3

- IC50 [2]: 38.1 ± 7 µM
- IC50 ([3]; Homo sapiens, A549, 48 h): 14 to 16 µM
- IC50 [3]: 16.2 ± 2.9 µM
- IC50 [4]: 16.6 ± 4.7 µM
- IC50 ([4]; Homo sapiens, HepG2, 48 h): 14 to 16 µM
- IC50 [5]: 40.2 ± 4.9 µM
- IC50 [8]: 14.5 ± 0.8 µM
- IC50 ([8]; Homo sapiens, HeLa, 48 h): 14 to 16 µM
SMILES: CN(C)CCNCCc1ccc2c(Cl)cc(Cl)c(N)c2n1 [TDMQ20]
- Fluorescence of DCF, % of the control cells ([1]; 3.7 μM): 125%
- Fluorescence of DCF, % of the control cells ([1]; 7.3 μM): 138%
- Fluorescence of DCF, % of the control cells ([1]; 14.5 μM): 150%
- Cytotoxic activity relative to the reference drug 5-FU ([3]; lung adenocarcinoma A549 cells): four times higher
- HeLa cell migration to close a wound [6]: significantly inhibited
- Total proportion of apoptotic cells (early, late apoptosis, necrosis) ([7]; 3.7 μM): 9%
- Total proportion of apoptotic cells (early, late apoptosis, necrosis) ([7]; 7.3 μM): 15%
- Total proportion of apoptotic cells (early, late apoptosis, necrosis) ([7]; 14.5 μM): 51%
- HeLa cells in colony-forming assay ([9]; TDMQ20 = 12 μM): not detectable
- Number of HeLa cells in cultures (colony-forming ability) ([9]; increasing drug concentration from 1.5 to 12 μM): drastically decreased
- JC-1 red/green fluorescence ratio (mitochondrial transmembrane potential ΔΨm) [10]: drastic decrease
- IC50 [11]: 41.1 ± 4.8 µM
- IC50 ([11]; Homo sapiens, HaCaT, 48 h): 41 µM

- IC50 [2]: 68.5 ± 4 µM
- IC50 ([3]; Homo sapiens, A549, 48 h): 72.6 ± 10 µM
- IC50 ([4]; Homo sapiens, HepG2, 48 h): 46.7 ± 4.7 µM
- IC50 [5]: 48.7 ± 0.7 µM
- IC50 ([8]; Homo sapiens, HeLa, 48 h): 20.3 ± 4.6 µM
SMILES: O=c1[nH]cc(F)c(=O)[nH]1 [5-FU, 5-fluorouracil, reference compound]
- IC50 ([11]; Homo sapiens, HaCaT, 48 h): 30 µM
